This note sets out measurements from paper PMC4309560, “Creating Novel Activated Factor XI Inhibitors through Fragment Based Lead Generation and Structure Aided Drug Design” (PLoS ONE, 2015).

The target in data set [1] is Human FXa (Homo sapiens, UniProt P00742). The data set is described as follows: biochemical. The conditions noted are these: read-out: FXa % inhibition at 99 μM. As to the method:
(§1) Enzymatic assay. […] Selected compounds were also screened against other serine proteases to evaluate their selectivity profiles.
(§2) Once the compounds were synthesized and characterized, enzymatic assays were performed to evaluate the inhibitory activity of the resulting compounds against FXIa and other serine proteases. […] IC50 values for the compounds were determined using equation: Q= V/(1+([I]/IC50)^n) Q denotes the assay readout, V denotes the uninhibited velocity of the enzyme, [I] denotes the inhibitor concentration, n denotes the slope and IC50 is the inhibitor concentration at V/2.

The target of data set [2] is Human FIXa (Homo sapiens, UniProt P00740). As to the kind of experiment: biochemical. The conditions noted are these: read-out: FIXa % inhibition at 99 μM. As to the method: as §1, §2
Human FIXa, sequence (P00740 227-461 limits assumed): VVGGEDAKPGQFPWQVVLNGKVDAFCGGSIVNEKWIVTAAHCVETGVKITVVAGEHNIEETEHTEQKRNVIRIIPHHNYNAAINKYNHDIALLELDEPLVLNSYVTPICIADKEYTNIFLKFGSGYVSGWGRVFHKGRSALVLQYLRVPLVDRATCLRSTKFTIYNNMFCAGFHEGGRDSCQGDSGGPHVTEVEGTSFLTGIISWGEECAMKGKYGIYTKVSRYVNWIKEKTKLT
Human FIXa, sequence (P00740 47-191 partner limits assumed): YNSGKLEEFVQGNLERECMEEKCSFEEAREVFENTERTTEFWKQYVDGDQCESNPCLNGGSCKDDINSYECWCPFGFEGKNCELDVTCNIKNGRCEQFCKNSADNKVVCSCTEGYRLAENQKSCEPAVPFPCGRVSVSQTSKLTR
Data set [3] has as its target T1, Human PKK (Homo sapiens, UniProt P03952).
T1 construct: trypsin, plasma kallikrein (PKK), FIXa; purchased Calbiochem, Darmstadt, Germany
As to the kind of experiment: PKK (plasma kallikrein) chromogenic assay. In kind it is biochemical. As to the method: as §1, §2
[S] denotes the substrate concentration.
PKK. Human PKK was from Calbiochem, Darmstadt, Germany.

Data set [4] is described as follows: Caco2 efflux. The conditions noted are these: human, Caco-2; Caco2, Papp B to A / Papp A to B, pH 7.4 at side A. In kind it is in vitro ADME. An excerpt: Efflux was studied in the same Caco2 cells with the modification that HBSS buffer pH 7.4 was used on both sides of the monolayer. The permeability was studied in the apical to basolateral direction (Papp AB) as well as in the basolateral to apical direction and (Papp BA). Efflux ratios were derived from the following equation: Papp BA/Papp AB.

A short description of data set [5]: In vivo rat PK. The conditions noted are these: female, Sprague Dawley, plasma, intravenous; rat in vivo; read-out: Rat CL (in vivo clearance). How it is done:
Two days prior to dosing, female Sprague Dawley rats were prepared by cannulation of the left carotid artery for blood sampling and by cannulation of the right jugular vein for intravenous administration. The catheters were filled with heparin (100 IU/mL), exteriorized at the nape of the neck and sealed. The surgery was performed under isoflurane (Forene®, Abbott) anesthesia. After surgery the rats were housed individually and had free access to food and water. About 16 h prior to dosing the animals were deprived of food, and fasted until 4 h after dosing. The rats had free access to drinking water during the experiment. On the experiment day, the test item formulation was administered orally by gavage or intravenously in the jugular vein. At pre-defined time points, blood samples of about 0.150 mL were withdrawn from the carotid artery up to 24h after dosing. A total of 10 samples were withdrawn. The blood samples were collected in heparinized plastic tubes and centrifuged, within 30 min, for five min at 10 000 g and +4°C. The plasma was transferred to a 96 well plate and stored at -20°C until analysis by LC/MS/MS. The studies were approved by the Göteborg Animal Research Ethical Board.

Data set [6] deals with Human tPA (Homo sapiens, UniProt P00750). The data set is described as follows: biochemical. The conditions noted are these: read-out: tPA % inhibition at 99 μM. As to the method:
as §1, §2
tPa. Human tPA was from Biopool, Umeå, Sweden.

Data set [7] concerns Caco2 cells. The data set is described as follows: Caco2 permeability. The conditions noted are these: measured at pH 6.5. The data set is classed as in vitro ADME. As to the method:
A monolayer of Caco2 cells, cultured on semi-permeable polycarbonate surfaces, was used to study the permeability in the apical to basolateral direction. The process was atomized by a robotic Tecan EVO platform (Männerdorf, Switzerland) and 24-transwell plates from Costar (Cambridge, MA, USA). HBSS buffer pH 7.4 was dispensed to the basal side of the monolayer. […] Samples for quantitative analysis by LC/MS/MS were withdrawn before the addition of the test substrate and at 45 and 120 min post addition of the test substrate. During incubation the transwell plates were placed in a shaking incubator at 37°C between sampling. The peak areas were exported to Excel where Papp-values and recoveries were calculated. Twenty-two reference compounds with known human oral bioavailability were used to establish a correlation curve with Papp versus the fraction of the oral dose absorbed (fa).
A general note: Caco-2 monolayers are a common model of the intestinal barrier.

In data set [8] the target is T2, Human FXIa (Homo sapiens, UniProt P03951).
T2 construct: purchased HTI, Essex Junction, USA
T2 sequence (P03951 388-625): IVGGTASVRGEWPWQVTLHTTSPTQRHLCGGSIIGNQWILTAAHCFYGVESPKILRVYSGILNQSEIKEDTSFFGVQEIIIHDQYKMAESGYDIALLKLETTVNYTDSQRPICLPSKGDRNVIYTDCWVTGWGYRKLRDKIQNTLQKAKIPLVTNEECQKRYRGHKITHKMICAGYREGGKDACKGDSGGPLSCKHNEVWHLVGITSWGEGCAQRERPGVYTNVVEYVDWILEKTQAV
T2 sequence (P03951 19-387): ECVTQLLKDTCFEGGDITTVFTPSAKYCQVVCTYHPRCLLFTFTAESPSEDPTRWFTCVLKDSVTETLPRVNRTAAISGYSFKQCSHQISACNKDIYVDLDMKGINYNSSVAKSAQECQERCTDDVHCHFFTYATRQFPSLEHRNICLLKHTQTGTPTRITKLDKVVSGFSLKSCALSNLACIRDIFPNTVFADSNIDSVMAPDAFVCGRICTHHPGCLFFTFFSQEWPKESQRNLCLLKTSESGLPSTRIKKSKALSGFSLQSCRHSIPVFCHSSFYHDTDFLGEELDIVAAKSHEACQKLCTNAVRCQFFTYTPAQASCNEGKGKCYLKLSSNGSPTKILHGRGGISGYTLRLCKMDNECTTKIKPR
As to the kind of experiment: FXIa enzymatic chromogenic assay. The data set is classed as biochemical.

Each structure is given as a SMILES string.

T1 sequence (P03952 391-638 limits assumed): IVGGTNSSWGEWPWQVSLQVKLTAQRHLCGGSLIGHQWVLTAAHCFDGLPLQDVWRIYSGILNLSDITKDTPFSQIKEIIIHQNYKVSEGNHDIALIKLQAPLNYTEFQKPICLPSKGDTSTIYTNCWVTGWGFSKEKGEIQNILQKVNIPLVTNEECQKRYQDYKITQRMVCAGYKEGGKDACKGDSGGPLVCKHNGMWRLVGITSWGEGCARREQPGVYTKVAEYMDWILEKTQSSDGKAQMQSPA
T1 sequence (P03952 20-390 partner limits assumed): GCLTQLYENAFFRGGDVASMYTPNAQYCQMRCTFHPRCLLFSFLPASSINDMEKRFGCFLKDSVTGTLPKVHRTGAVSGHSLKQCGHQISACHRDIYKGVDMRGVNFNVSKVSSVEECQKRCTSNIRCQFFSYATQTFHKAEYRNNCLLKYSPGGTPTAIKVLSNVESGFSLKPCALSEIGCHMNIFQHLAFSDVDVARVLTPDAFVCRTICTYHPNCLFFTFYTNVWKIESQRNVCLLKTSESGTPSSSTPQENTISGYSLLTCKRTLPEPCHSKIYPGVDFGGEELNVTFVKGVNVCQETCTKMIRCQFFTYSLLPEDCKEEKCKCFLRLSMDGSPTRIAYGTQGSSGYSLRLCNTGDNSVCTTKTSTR
Human tPA, sequence (P00750 36-562): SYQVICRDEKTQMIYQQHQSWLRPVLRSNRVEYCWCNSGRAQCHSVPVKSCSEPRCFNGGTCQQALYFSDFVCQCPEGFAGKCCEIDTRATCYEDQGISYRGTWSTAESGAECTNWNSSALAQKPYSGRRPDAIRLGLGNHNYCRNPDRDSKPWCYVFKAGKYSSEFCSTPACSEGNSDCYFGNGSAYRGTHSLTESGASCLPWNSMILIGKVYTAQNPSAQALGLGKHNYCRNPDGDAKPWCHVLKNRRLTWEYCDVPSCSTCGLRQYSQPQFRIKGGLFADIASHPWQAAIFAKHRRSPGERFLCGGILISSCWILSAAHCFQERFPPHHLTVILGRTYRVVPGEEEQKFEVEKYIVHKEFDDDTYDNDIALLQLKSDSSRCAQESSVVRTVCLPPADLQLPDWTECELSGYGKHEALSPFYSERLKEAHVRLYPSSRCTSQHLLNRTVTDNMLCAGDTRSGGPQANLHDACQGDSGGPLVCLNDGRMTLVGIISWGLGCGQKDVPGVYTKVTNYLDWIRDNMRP
Human FXa, sequence (P00742 235-488 limits assumed): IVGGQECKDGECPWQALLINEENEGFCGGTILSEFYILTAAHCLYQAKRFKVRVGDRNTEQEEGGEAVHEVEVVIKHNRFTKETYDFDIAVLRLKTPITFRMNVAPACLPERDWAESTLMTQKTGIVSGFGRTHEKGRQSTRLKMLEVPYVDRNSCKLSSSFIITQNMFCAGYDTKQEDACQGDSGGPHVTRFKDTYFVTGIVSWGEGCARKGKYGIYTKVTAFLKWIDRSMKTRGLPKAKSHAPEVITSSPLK
Human FXa, sequence (P00742 41-179 partner limits assumed): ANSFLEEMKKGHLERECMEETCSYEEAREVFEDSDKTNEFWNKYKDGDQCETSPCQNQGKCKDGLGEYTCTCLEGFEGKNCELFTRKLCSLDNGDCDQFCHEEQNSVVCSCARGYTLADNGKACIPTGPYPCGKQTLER

In the case of `O=C(N[C@@H](Cc1ccccc1)C(=O)NCc1cc(=O)[nH]c2ccc(Cl)cc12)c1ccc2[nH]c(=O)cc(O)c2c1` [Compound 13, (S)-N-(1-{(6-Chloro-2-oxo-1,2-dihydroquinolin-4-yl)methylamino}-1-oxo-3-phenylpropan-2-yl)-4-hydroxy-2-oxo-1,2-dihydroquinoline-6-carboxamide], the inhibition (commonly the change of the read-out against control, counted positive when it falls) at 99 µM in data set [1] turned out to be 18%; in data set [2] it was 2%; in data set [6], 2%. Further, the IC50 – broadly, the concentration that inhibits the measured activity by half – in data set [3] turned out to be 27 nM; in data set [8], 1 nM. In addition, the “selectivity vs. PKK” value in data set [3] (FXIa over PKK, for 13 based on Ki values) amounted to 11 fold. Further, the Ki – broadly, a measure of affinity in units of concentration, obtained from inhibition or displacement – in data set [3] (converted from IC50) is 5.6 nM; in data set [8] (read-out: FXIa Ki), 0.5 nM. For the same compound, in data set [4], the efflux ratio (usually a quotient of directional permeabilities that is used to spot active efflux) was above 4.6. In addition, the clearance (in general, a measure of how efficiently the substance is removed, as volume per time) in data set [5] stood at 130 mL/min/kg. Besides, in data set [7], the “Caco2 A to B permeability” value is < 0.28 1·10^-6 cm/s. For the same compound, in data set [8] (FXIa), the “ligand efficiency (LE)” value is reported as 0.32. The “ΔG (binding free energy)” value in data set [8] (FXIa, term of the ΔG link equation) is -12.7 kcal/mol. Besides, in data set [8] (compound 13 relative to fragments 5 and 15), the “ΔG link (linker contribution)” value is -3.13 kcal/mol.
